Tested on: lipase
Assay: Inhibition and activation of lipase activity by divalent metal ions, SH reagent and surface-active agents
Format: biochemical, Staphylococcus capitis
Experimental: The effects of the divalent metal ions, SH reagent and surface-active agents on the lipase activity were evaluated by measuring the residual activities after treatment. […] The lipase activity is increased 3-fold to 5-fold by the presence of Ca^2+.
The lipase activity is more than 90% inhibited by 2 mM sodium laurylsulfate (SDS), 2 mM iodine acetamide, 0.1% Tween 20, 0.1% Tween 80, and 0.1% Triton X-100.
One milliliter of olive oil is added to a test tube (.phi.25×200 mm) containing 5 ml of a reaction mixture consisting of 25 mM of a Tris-HCl buffer (pH 8.0) and 10 mM of CaCl2, the tube is stirred vigorously with a mixer, and 0.5 ml of an enzyme solution is added to the tube. The reaction is carried out during which the tube is shaken at 300 rpm on a reciprocating shaker. The reaction is stopped on the addition of 20 ml of ethanol and the fatty acids formed are titrated with 0.05 N of an aqueous sodium hydroxide solution. The control values are likewise determined by titrating the solution obtained by first adding ethanol to a reaction mixture of the composition and then adding an enzyme solution to the same. According to a proposal by Enzyme Nomenclature; recommendations (1978) of the nomenclature committee of the International Union of Biochemistry (I.U.B.), Academic Press, a unit of lipase activity is defined as that amount of lipase required to liberate 1 μmole of fatty acids per minute under reaction conditions.

Molecule | inhibition of lipase activity (residual activity after treatment) (10 mM) | further results
CCCCCCCC/C=C\CCCCCCCC(=O)OCCOCC(OCCO)C1OCC(OCCO)C1OCCO (stereo not shown) [Tween 80] |  | inhibition of lipase activity (0.1%): more than 90%
[Mn+2] [Mn^2+] | No inhibition | 
[Cu+2] [Cu^2+] | No inhibition | 
CCCCCCCCCCCCOS(=O)(=O)[O-].[Na+] [sodium laurylsulfate (SDS), sodium laurylsulfate] |  | inhibition of lipase activity (2 mM): more than 90%
[Fe+2] [Fe^2+] |  | inhibition of lipase activity (residual activity after treatment) (1 mM): No inhibition
Triton X-100 |  | inhibition of lipase activity (0.1%): more than 90%
NC(=O)CI [iodine acetamide] |  | inhibition of lipase activity (2 mM): more than 90%
[Mg+2] [Mg^2+] | No inhibition | 
[Ca+2] [Ca^2+] | No inhibition | 
[Zn+2] [Zn^2+] | No inhibition | 

Source: patent US4791059A, “Process for preparing lipase” (Suntory Limited, priority 1984, dated 1988)
